In US20030215817A1, “Modulation of gene expression in formation of fatty atherosclerotic lesions” (priority 2003, published 2003):
Structures can show the parent of a compound that is named as a salt.

How the values were obtained:
Format in all cases: in vivo, rabbit
[1] = system: REC1_34 (digital address CGGT 209) mRNA; assay: TOGA analysis, REC1_34
Protocol: (§1) To perform the studies, New Zealand male rabbits weighing 2.0-2.5 kg (Charles River, Calco, Italy) were used. The rabbits were divided into three groups and maintained in identical experimental conditions: (1) control group (n=15); rabbits fed a cholesterol-rich diet; (2) lercanidipine-treated group (n=15); rabbits fed a cholesterol-rich diet and also treated with lercanidipine (3 mg/kg/week); and (3) (R)-lercanidipine-treated group (n=5); rabbits fed a cholesterol-rich diet and also treated with the (R)-enantiomer of lercanidipine (3 mg/kg/week). After a 2 week period of subcutaneous, once a week, pretreatment with 3 mg/kg/week of lercanidipine or (R)-lercanidipine, the rabbits received a daily cholesterol supplement for up to 8 weeks or 2 weeks, respectively. In the following examples, use of the term “lercanidipine” refers to the racemic mixture of lercanidipine hydrochloride, whereas “(R)-lercanidipine” refers to the (R)-enantiomer of lercanidipine hydrochloride.
(§2) The mRNA from the above-described groups was isolated from aorta at different time points, resulting in the following mRNA samples: (1) Day 0 Control=no administered cholesterol, no lercanidipine; (2) Day 0+lercanidipine=no administered cholesterol, treatment with lercanipidine (2 weeks; 3 mg/kg/week); (3) Day 14 Control=cholesterol diet for two weeks, no lercanidipine; (4) Day 14+lercanidipine=cholesterol diet for two weeks, treatment with lercanidipine (four weeks; 3 mg/kg/week); (5) Week 8 Control=cholesterol diet for 8 weeks, no lercanidipine; and (6) Week 8+lercanidipine=cholesterol diet for 8 weeks, treatment with lercanidipine (10 weeks; 3 mg/kg/week). In addition, Day 14+(R)-lercanidipine mRNA samples were prepared from rabbits given a cholesterol diet for two weeks and treated with 3 mg/kg/week (R)-lercanidipine for four weeks.
(§3) Aorta mRNAs were prepared in the following manner. First, the aortas from each experimental group were retrieved and shredded using a polytron homogenizer. The samples were further homogenized using a teflon pestle, after which the cellular debris, nuclei, and blood cells were pelleted by centrifugation. The supernatants were extracted twice with phenol-chloroform-isoamyl alcohol and once with chloroform-isoamyl alcohol. RNA was then precipitated from the aqueous phase with ethanol. The poly A+ mRNA was prepared using standard methods of polyA selection known in the art (Schriber et al., J. Mol. Biol., 142:93-116 (1980)).
(§4) The isolated mRNA was analyzed using a method of simultaneous sequence-specific identification of mRNAs known as TOGA, described in U.S. Pat. No. 5,459,037 and U.S. Pat. No. 5,807,680, hereby incorporated herein by reference. In a preferred embodiment, the TOGA method further comprised an additional PCR step performed using a mixture of four 5′ PCR primers and cDNA templates prepared from a population of antisense cRNAs. A final PCR step that used a mixture of 256 5′ PCR primers produced PCR products that were cDNA fragments that corresponded to the 3′-region of the starting mRNA population. The produced PCR products were then identified by: (a) the initial 5′ sequence comprising the sequence remainder of the recognition site of the restriction endonuclease used to cut and isolate the 3′ region plus the sequence of the preferably four parsing bases immediately 3′ to the remainder of the recognition site, preferably the sequence of the entire fragment; and (b) the length of the fragment. These two parameters, sequence and fragment length, were used to compare the obtained PCR products to a database of known polynucleotide sequences. Since the length of the obtained PCR products includes known vector sequences at the 5′ and 3′ ends of the insert, the sequence of the insert provided in the sequence listing is shorter than the fragment length that forms part of the digital address.
(§5) The method yields Digital Sequence Tags (DSTs), that is, polynucleotides that are expressed sequence tags of the 3′ end of mRNAs. […]

[2] = system: REC1_24 (digital address CCGG 232) mRNA; assay: TOGA analysis, REC1_24
Protocol: as §1, §2, §3, §4, §5

[3] = system: REC1_33 (digital address CCGA 96) mRNA, as1_casein gene; assay: TOGA analysis, REC1_33
Protocol: as §1, §2, §3, §4, §5

[4] = system: REC1_37 (digital address TTCA 264) mRNA, ribosomal protein L15; assay: TOGA analysis, REC1_37
Protocol: as §1, §2, §3, §4, §5

[5] = system: REC1_6 (MspI ATCC 176) mRNA, ferritin light chain subunit; assay: TOGA analysis, REC1_6
Protocol: as §1, §2, §3
as §4, with “These two parameters, sequence and fragment length, were used to compare the obtained PCR products to a database of known polynucleotide sequences. Since the length of the obtained PCR products includes known vector sequences at the 5′ and 3′ ends of the insert, the sequence of the insert provided in the sequence listing is shorter than the fragment length that forms part of the digital address.” left out

[6] = system: REC1_22 (digital address TGGG 164) mRNA; assay: TOGA analysis, REC1_22
Protocol: as §1, §2, §3, §4, §5

[7] = system: REC1_7 (MspI CACA 282) mRNA; assay: TOGA analysis, REC1_7
Protocol: as §1, §2, §3, §4, §5

[8] = system: REC1_1 (MspI AAGC 288) mRNA, TYRO protein tyrosine kinase binding p; assay: TOGA analysis, REC1_1
Protocol: as §1, §2, §3, §4, §5

[9] = system: REC1_12 (GCCC 232) mRNA, alpha smooth muscle actin; assay: TOGA analysis, REC1_12
Protocol: as §1, §2, §3
as §4, with “These two parameters, sequence and fragment length, were used to compare the obtained PCR products to a database of known polynucleotide sequences. Since the length of the obtained PCR products includes known vector sequences at the 5′ and 3′ ends of the insert, the sequence of the insert provided in the sequence listing is shorter than the fragment length that forms part of the digital address.” left out

[10] = system: REC1_28 (digital address CGGT 101) mRNA, calgizzarin; assay: TOGA analysis, REC1_28
Protocol: as §1, §2, §3, §4, §5

[11] = system: REC1_31 (digital address TGCA 210) mRNA, mitochondrial genome; assay: TOGA analysis, REC1_31
Protocol: as §1, §2, §3, §4, §5

[12] = aorta at day 0: no cholesterol, 3 mg/kg/week for 2 weeks
[13] = aorta at day 14 of cholesterol, 3 mg/kg/week for 4 weeks
[14] = aorta at day 14 of cholesterol diet, 3 mg/kg/week for 4 weeks
[15] = aorta at day 14 of cholesterol administration, 3 mg/kg/week for 4 weeks
[16] = TOGA, hypercholesterolemic plus lercanidipine racemate, eight weeks, H2 (normocholesterolemic)=1.0
[17] = aorta at day 14 of cholesterol treatment, 3 mg/kg/week for 4 weeks
[18] = TOGA, hypercholesterolemic plus lercanidipine R (−), eight weeks, H2 (normocholesterolemic)=1.0

COC(=O)C1=C(C)NC(C)=C(C(=O)OC(C)(C)CN(C)CCC(c2ccccc2)c2ccccc2)C1c1cccc([N+](=O)[O-])c1 (racemic) [lercanidipine, lercanidipine hydrochloride]
level of gene expression, 8 Week hypercholesterol + Lercanidipine ([1]; REC1_34 CGGT 209, rabbit aorta, 8 weeks cholesterol): 203 | level of gene expression, 14 Day hypercholesterol + Lercanidipine ([1]; REC1_34 CGGT 209, rabbit aorta, 14 days cholesterol): 331 | level of gene expression, Normal + Lercanidipine ([1]; REC1_34 CGGT 209, rabbit aorta, no cholesterol): 100 | level of gene expression of REC1_34 (TOGA) [1, 12]: 100 | level of gene expression of REC1_34 (TOGA) [1, 13]: 331 | level of gene expression, 8 Week hypercholesterol + Lercanidipine ([2]; REC1_24 CCGG 232, rabbit aorta, 8 weeks cholesterol): 117 | level of gene expression, 14 Day hypercholesterol + Lercanidipine ([2]; REC1_24 CCGG 232, rabbit aorta, 14 days cholesterol): 104 | level of gene expression, Normal + Lercanidipine ([2]; REC1_24 CCGG 232, rabbit aorta, no cholesterol): 122 | level of gene expression of REC1_24 (TOGA) [2, 12]: 122 | level of gene expression of REC1_24 (TOGA) [2, 14]: 104 | level of gene expression, 8 Week hypercholesterol + Lercanidipine ([3]; REC1_33 CCGA 96, rabbit aorta, 8 weeks cholesterol): 156 | level of gene expression, 14 Day hypercholesterol + Lercanidipine ([3]; REC1_33 CCGA 96, rabbit aorta, 14 days cholesterol): 842 | level of gene expression, Normal + Lercanidipine ([3]; REC1_33 CCGA 96, rabbit aorta, no cholesterol): 1094 | level of gene expression of REC1_33 (TOGA) [3, 12]: 1094 | level of gene expression of REC1_33 (TOGA) [3, 15]: 842 | level of gene expression, 8 Week hypercholesterol + Lercanidipine ([4]; REC1_37 TTCA 264, rabbit aorta, cholesterol 8 weeks): 136 | level of gene expression, 14 Day hypercholesterol + Lercanidipine ([4]; REC1_37 TTCA 264, rabbit aorta, cholesterol 14 days): 915 | level of gene expression, Normal + Lercanidipine ([4]; REC1_37 TTCA 264, rabbit aorta, no cholesterol): 605 | level of gene expression of REC1_37 (TOGA) [4, 13]: 915 | level of gene expression of REC1_37 (TOGA) ([4]; aorta at week 8 of cholesterol, 3 mg/kg/week for 10 weeks): 136 | level of gene expression (TOGA), 8 Week hypercholesterol + Lercanidipine ([5]; REC1_6, ATCC 176, rabbit aorta, 8 weeks cholesterol + lercanidipine): 1302 | level of gene expression (TOGA), 14 Day hypercholesterol + Lercanidipine ([5]; REC1_6, ATCC 176, rabbit aorta, 14 days cholesterol + lercanidipine): 399 | level of gene expression (TOGA), Normal + Lercanidipine ([5]; REC1_6, ATCC 176, rabbit aorta, no cholesterol, lercanidipine): 120 | Relative Abundance Rec1_6, TOGA, F [5, 16]: 8.8 | level of gene expression, 8 Week hypercholesterol + Lercanidipine ([6]; REC1_22 TGGG 164, rabbit aorta, cholesterol 8 weeks): 122 | level of gene expression, 14 Day hypercholesterol + Lercanidipine ([6]; REC1_22 TGGG 164, rabbit aorta, cholesterol 14 days): 194 | level of gene expression, Normal + Lercanidipine ([6]; REC1_22 TGGG 164, rabbit aorta, no cholesterol): 87 | level of gene expression of REC1_22 (TOGA) [6, 12]: 87 | level of gene expression of REC1_22 (TOGA) [6, 15]: 194 | level of gene expression (TOGA), 8 Week hypercholesterol + Lercanidipine ([7]; REC1_7, CACA 282, rabbit aorta, 8 weeks cholesterol + lercanidipine): 159 | level of gene expression (TOGA), 14 Day hypercholesterol + Lercanidipine ([7]; REC1_7, CACA 282, rabbit aorta, 14 days cholesterol + lercanidipine): 417 | level of gene expression (TOGA), Normal + Lercanidipine ([7]; REC1_7, CACA 282, rabbit aorta, no cholesterol, lercanidipine): 863 | Relative Abundance Rec1_7, TOGA, F [7, 16]: 0.2 | level of gene expression of REC1_7 (TOGA) [7, 12]: 863 | level of gene expression of REC1_7 (TOGA) [7, 15]: 417 | level of gene expression of REC1_7 (TOGA) ([7]; aorta at week 8 of cholesterol administration, 3 mg/kg/week for 10 weeks): 159 | level of gene expression (TOGA), 8 Week hypercholesterol + Lercanidipine ([8]; REC1_1, AAGC 288, rabbit aorta, 8 weeks cholesterol + lercanidipine): 1733 | level of gene expression (TOGA), 14 Day hypercholesterol + Lercanidipine ([8]; REC1_1, AAGC 288, rabbit aorta, 14 days cholesterol + lercanidipine): 753 | level of gene expression (TOGA), Normal + Lercanidipine ([8]; REC1_1, AAGC 288, rabbit aorta, no cholesterol, lercanidipine): 215 | Relative Abundance Rec1_1, TOGA, F [8, 16]: 6.9 | level of gene expression of REC1_1 (TOGA) ([8]; aorta at 8 weeks of cholesterol administration, 3 mg/kg/week for 10 weeks): 1733 | level of gene expression of REC1_1 (TOGA) [8, 12]: 215 | level of gene expression of REC1_1 (TOGA) [8, 17]: 753 | level of gene expression, 8 Week hypercholesterol + Lercanidipine ([9]; REC1_12 GCCC 232, rabbit aorta, 8 weeks cholesterol): 622 | level of gene expression, 14 Day hypercholesterol + Lercanidipine ([9]; REC1_12 GCCC 232, rabbit aorta, 14 days cholesterol): 5657 | level of gene expression, Normal + Lercanidipine ([9]; REC1_12 GCCC 232, rabbit aorta, no cholesterol): 4929 | Relative Abundance Rec1_12, TOGA, F [9, 16]: 0.1 | level of gene expression, 8 Week hypercholesterol + Lercanidipine ([10]; REC1_28 CGGT 101, rabbit aorta, 8 weeks cholesterol): 176 | level of gene expression, 14 Day hypercholesterol + Lercanidipine ([10]; REC1_28 CGGT 101, rabbit aorta, 14 days cholesterol): 189 | level of gene expression, Normal + Lercanidipine ([10]; REC1_28 CGGT 101, rabbit aorta, no cholesterol): 229 | level of gene expression of REC1_28 (TOGA) [10, 12]: 229 | level of gene expression of REC1_28 (TOGA) [10, 14]: 189 | level of gene expression, 8 Week hypercholesterol + Lercanidipine ([11]; REC1_31 TGCA 210, rabbit aorta, cholesterol 8 weeks): 245 | level of gene expression, 14 Day hypercholesterol + Lercanidipine ([11]; REC1_31 TGCA 210, rabbit aorta, cholesterol 14 days): 619 | level of gene expression, Normal + Lercanidipine ([11]; REC1_31 TGCA 210, rabbit aorta, no cholesterol): 464 | level of gene expression of REC1_31 (TOGA) [11, 12]: 464 | level of gene expression of REC1_31 (TOGA) [11, 15]: 619

COC(=O)C1=C(C)NC(C)=C(C(=O)OC(C)(C)CN(C)CCC(c2ccccc2)c2ccccc2)[C@@H]1c1cccc([N+](=O)[O-])c1.Cl (single isomer, unassigned) [(R)-lercanidipine]
level of gene expression of REC1_34 (TOGA) [1, 13]: 58 | Relative Abundance Rec1_24, TOGA, D [2, 18]: 0.3 | level of gene expression of REC1_33 (TOGA) [3, 15]: 170 | level of gene expression of REC1_37 (TOGA) [4, 13]: 42 | Relative Abundance Rec1_22, TOGA, D [6, 18]: 0.1 | level of gene expression of REC1_7 (TOGA) [7, 15]: 683 | level of gene expression of REC1_1 (TOGA) [8, 17]: 872 | expression of REC1_28 (TOGA), in words ([10]; aorta of hypercholesterolemic rabbits treated with (R)-lercanidipine): not down-regulated | level of gene expression of REC1_31 (TOGA) [11, 15]: 28
